Where two headings read alike, the source gives them in different places.
Columns and labels:
[1] = system: various human cancer cell lines; test: Cell viability by MTT cell proliferation assay; assay type: cell-based
Experimental: Human […] cancer cells (Hela) and breast cancer cells (MD-MBA-231, MCF7) were seeded at 3000 cells/well in 96-well plates and maintained for 14-16 hours, then treated with JMF3086 or gemcitabine or both. After 72 hours, cells were washed with PBS then added medium containing MTT reagent (Sigma) at a final concentration of 0.5 mg/ml for 4 hours. Then, the medium was replaced with 200 μl of DMSO for 30 minutes, and using an ELISA reader (570 nm) to get the absorbance density values. The 50% of inhibition concentration (IC50) of death cells was calculated.
Effect of three 3,5,N-trihydroxy-alkanamide derivatives, JMF3086, (3R,5R)-7-{(1S,2S,6R,8S,8aR)-hexahydro-2,6-dimethyl-8-[2-dimethylbutyryloxy]naphthalenyl}-3,5-dihydroxy-N-hydroxyheptanamide (also referred to as JMF3171), and (3R,5R)-7-{[2-(4-fluoro-phenyl)-5isopropyl-3-phenyl-4-phenylcarbamoylpyrrol-1-yl]-3,5-dihydroxy-N-hydroxyheptanamide (also referred to as JMF3173) and the corresponding statins on the cell viability of various human cancer cell lines was determined by cell proliferation assay as described in Example 4. Specifically, cancer cells were treated with various concentrations of test compounds for 72 hours, and cell viability was measured by MTT assay. The half maximal inhibitory concentration (IC50) values for individual cell line were calculated.

[2] = system: A549-Luc cells; test: Orthotopic lung cancer model (A549-Luc, IVIS imaging); assay type: in vivo, NOD/SCID mice; details: single agent; JMF3086 oral 5 days/week or cisplatin i.p. once a week, two weeks; FIG. 3B
Experimental: In this Example, we use A549 cells [non-small cell lung cancer cell line with KRAS mutations (EGFR wild-type)] to establish the orthotopic lung cancer models. Seven-week-old male NOD/SCID mice were anesthetized by continuous flow of 2-3% isoflurane. A549-Luc cells (2×10^6) suspended in 40 μl of PBS were injected percutaneously into the right lung of the mice using 500 μl Gas-Tight syringes with 27G top winged infusion set. These mice were then given endotoxon-free luciferse substrate and photographed using IVIS-200 imaging system once a week. When lung tumor nodules were detected, the mice were oral administration of JMF3086 (5 days/week), intraperitoneally administered cisplatin (once a week) or a combination of JM3086 and cisplatin for additional two weeks (FIG. 3A).

[3] = system: HT29-Luciferase expressing cells; test: Experimental colorectal cancer metastasis to the liver (HT29-Luciferase cells injected into spleen, IVIS imaging); assay type: in vivo, NOD/SCID mice; details: single agent; JMF3086 oral 5 days/week, oxaliplatin or irinotecan i.p. once a week, two weeks; FIGS. 2B and 2C
Experimental: Seven-week-old female NOD/SCID mice were obtained from the National Laboratory Animal Center. The mice were anesthetized by continuous flow of 2-3% isoflurane. To generate liver metastases derived from human colorectal cancer cells in mouse models, HT29-Luciferase expressing cells (1×10^6) were suspended in 100 μl PBS and injected into the spleen of mice. After one-week recovery, the mice were randomized into vehicle and treatment group. […] Mice were then given endotoxon-free luciferse substrate and photographed by IVIS imaging system (Xenogen) once a week. Tumors in spleen and liver were collected and weighed after sacrificed.

[4] = system: AOM/DSS-induced CRC; test: Animal model of AOM/DSS-induced CRC; assay type: in vivo, male C57BL/6 mice; details: single agent; JMF3086 25 mg/kg oral 5 days/week or oxaliplatin 5 mg/kg i.p. once a week, two weeks; FIG. 1B
Experimental: FIGS. 1A and 1B show the effect of a 3,5,N-trihydroxy-alkanamide derivative, JMF3086, combined with oxaliplatin on colitis-induced colorectal cancer in vivo. Mice were intraperitoneally injected with AOM (12.5 mg/kg) and maintained for 7 days, then subjected to 3 cycles of DSS treatment (1 cycle representing 5 days of 3.5% DSS followed by 14 days of H2O). […] Scale bars: 1 mm **P<0.01 versus vehicle.
AOM in conjunction with the additional DSS inflammatory stimulus results in tumor development that is restricted to the colon in mice (11, 12). This model is widely utilized to recapitulate human colorectal cancer because it results in inflammation and ulceration of the entire colon, similar to what is observed in patients (12). CRC was induced in male C57BL/6 mice via the intraperitoneal injection of AOM (12.5 mg/kg) while the mice were maintained with a regular diet and drinking water for 7 days and then subjecting to 3 cycles of DSS treatment, with each cycle consisting of the administration of 3.5% DSS for 5 days followed by a 14-day recovery period with regular water (FIG. 1A). […]

[5] = system: bindings of acetyl-H3K27, CBP, HDAC1 and HDAC3 to promoter; test: Quantitative ChIP (qChIP) assay of promoter binding in HCT116 cells; assay type: cell-based, human; details: FIG. 5D
Experimental: FIGS. 5A to 5D show genome-wide analysis of target genes in 3,5,N-trihydroxy-alkanamide derivative-treated colorectal cancer cells. […] Ingenuity Pathways Analysis (IPA) analysis predicted that the genes associated with apoptosis were regulated by NR3C1. P=4.30E-37. […] The molecular network has a P-score (−log10 (p-value)) of 48. […] Data were analyzed by the Q-PCR and plotted as percent (%) of input DNA. *P<0.05, **P<0.01 versus basal, two-sided Student t test.
(§1) Colorectal cancer cells (HCT116) were treated with 30 μM JMF3086 for 24 hours, ChIP assays using control Rabbit IgG (sc-2027; Santa Cruz) or anti-H3K27-ac antibody (#4353; Cell Signaling) were performed as previously described (14).
To further investigate these differential effects of JMF3086, the bindings of acetyl-H3K27, CBP, HDAC1 and HDAC3 to promoter were examined by quantitative ChIP (qChIP) assays. JMF3086 reduced the bindings of acetyl-H3K27 and CBP to the promoters of TNF-α, CD166, COX-2, BCL2, CXCL1, CXCL2, EpCAM, CD44, Cyclin D1 and MCL1, but increased those of HDAC1 and HDAC3 to the promoters (FIG. 5D). In contrast, JMF3086 increased the bindings of acetyl-H3K27 and CBP to the promoters of TIMP3, BMP2 and p53 but decreased those of HDAC1 and HDAC3 to their promoters (FIG. 5D).

[6] = system: H3K27-Ac binding to gene promoters in HCT116; test: ChIP-on-chip assay of H3K27-Ac in HCT116 cells; assay type: cell-based, human
Experimental: as §1
ChIP-on-chip assays were performed in the Microarray and Gene Expression Analysis Core Facility of the National Yang-Ming University VGH Genome Research Center in Taiwan using the SurePrint G3 Human Promoter 1×1M Kit (Agilent Technologies) after DNA was further purified through phenol/chloroform/isoamyl alcohol extraction and ethanol precipitation. Genes with two-fold down-regulation or up-regulation of H3K27-Ac in log-ratio after JMF 3086 treatment were regarded as significance.

[7] = system: angiogenesis (neovessel formation in matrigel plugs); test: Subcutaneous matrigel plug angiogenesis assay with conditioned medium of hypoxic HCT116 cells; assay type: in vivo, nude mice; details: HCT116 treated with 30 μM JMF3086 for 20 hours, hypoxia 4 hours; plugs after 14 days; FIG. 2F
Experimental: Angiogenesis is an essential step of tumor growth and metastasis (13). To determining the effect of JMF3086 on angiogenesis, HCT116 cells treated with 30 μM JMF3086 for 20 hours were exposed to hypoxia for 4 hours, then conditional medium was collected and subcutaneous matrigel plug assay was conducted by injecting of 75 μl conditional medium mixed with 425 μl matrigel and 50 U heparin/ml into nude mice (5 mice/group). Mice were sacrificed and dissected after 14 days. Matrigel plug retrieved from mice were photographed. Quantification of neovessel formation in matrigel plugs were estimated using Drabkin reagent kit 525.

[8] = system: colorectal cancer cells (HCT116); test: Experimental colorectal cancer metastasis to the lung (HCT116 injected via tail vein); assay type: in vivo, nude mice; details: JMF3086 100 mg/kg; FIG. 2E
Experimental: Besides, to examine the anti-metastatic activity of JMF3086, colorectal cancer cells (HCT116) were intravenously injected into nude mice via the tail vein (FIG. 2D). JMF3086 (100 mg/kg) reduced lung tumor nodules by macroscopic observation (FIG. 2E), indicating its inhibition on lung metastasis.

[9] = HCT116, 30 μM, 24 hours, FIG. 5C

CC(C)c1c(C(=O)Nc2ccccc2)c(-c2ccccc2)c(-c2ccc(F)cc2)n1CC[C@@H](O)C[C@@H](O)CC(=O)NO [JMF3173]
cytotoxicity / cell viability ([1]; CRC and various cancer cell lines, 72 hours, MTT, FIG. 4): cytotoxic

N.N.[Cl][Pt][Cl] [cisplatin, reference compound]
lung cancer development (luciferase activity, IVIS) [2]: ineffectively inhibited

O=C1[O][Pt]2([NH][C@@H]3CCCC[C@H]3[NH]2)[O]C1=O [oxaliplatin, reference compound]
liver metastasis (luciferase activity, IVIS) [3]: modestly inhibited
number of tumors and sizes [4]: modestly reduced

CCc1c2c(nc3ccc(OC(=O)N4CCC(N5CCCCC5)CC4)cc13)-c1cc3c(c(=O)n1C2)COC(=O)[C@]3(O)CC [irinotecan]
liver metastasis (luciferase activity, IVIS) [3]: modestly inhibited

CCC(C)C(=O)O[C@H]1C[C@@H](C)C=C2C=C[C@H](C)[C@H](CC[C@@H](O)C[C@@H](O)CC(=O)NO)[C@H]21 (stereo partly drawn) [JMF3086, (3R,5R)-7-{(1S,2S,6R,8S,8aR)-hexahydro-2,6-dimethyl-8-[2-methylbutyryloxy]naphthalenyl}-3,5-dihydroxy-N-hydroxyheptanamide]
bindings of HDAC1 and HDAC3 to the promoters of TIMP3, BMP2 and p53 [5]: decreased
bindings of HDAC1 and HDAC3 to the promoters of TNF-α, CD166, COX-2, BCL2, CXCL1, CXCL2, EpCAM, CD44, Cyclin D1 and MCL1 [5]: increased
bindings of acetyl-H3K27 and CBP to the promoters of TIMP3, BMP2 and p53 [5]: increased
bindings of acetyl-H3K27 and CBP to the promoters of TNF-α, CD166, COX-2, BCL2, CXCL1, CXCL2, EpCAM, CD44, Cyclin D1 and MCL1 [5]: reduced
number of genes with altered binding of H3K27-acetylation ([6]; HCT116, 30 μM JMF3086, 24 hours): more than 10,000 genes
mRNA expression of genes of inflammation and proliferation, stemness of cancer, and anti-apoptosis ([6]; HCT116, 30 μM, 24 hours): reduced
mRNA expression of tumor suppressors ([6]; HCT116, 30 μM, 24 hours): increased
binding of H3K27-Ac to the gene promoters of inflammation and proliferation, stemness of cancer, and anti-apoptosis [6, 9]: inhibited
binding of H3K27-Ac to the gene promoters of tumor suppressors [6, 9]: increased
cytotoxicity / cell viability [1]: cytotoxic
lung cancer development (luciferase activity, IVIS) [2]: ineffectively inhibited
liver metastasis (luciferase activity, IVIS) [3]: modestly inhibited
angiogenesis induced by conditioned medium from HCT116 cells under hypoxia (matrigel plug) [7]: inhibited
lung tumor nodules by macroscopic observation [8]: reduced
number of tumors and sizes [4]: modestly reduced

CCC(C)(C)C(=O)O[C@H]1C[C@@H](C)C=C2C=C[C@H](C)[C@H](CC[C@@H](O)C[C@@H](O)CC(=O)NO)[C@H]21 [JMF3171, (3R,5R)-7-{(1S,2S,6R,8S,8aR)-hexahydro-2,6-dimethyl-8-[2-dimethylbutyryloxy]naphthalenyl}-3,5-dihydroxy-N-hydroxyheptanamide]
cytotoxicity / cell viability [1]: cytotoxic

Reference: patent publication US20170273921A1, “3,5,N-TRIHYDROXY-ALKANAMIDE OR 3,5,N-TRIHYDROXY-6-ALKENAMIDE DERIVATIVE ALONE OR IN COMBINATION WITH CHEMOTHERAPEUTIC AGENT FOR TREATING CANCER” (National Taiwan University, priority 2014, published 2017)
